Measurements from patent EP3292132B1, “PI3K INHIBITOR COMPOUNDS TO TREAT CANCER” (FUNDACIÓN MEDINA. Centro de Excelencia en Investigación de …, priority 2015, dated 2016).

How the values were obtained:
Phospho GSK3β = test: Western blot, PI3K/AKT/mTOR pathway inhibition: phospho GSK3β; type: cell-based; conditions: 1 hour treatment; signals quantified using β-actine
Excerpt: (§1) Western blot technique was used, using an Odissey Licor equipment to identify the proteins. Phospho AKT, AKT and Phospho GSK3β antibodies were used as first antibodies and anti-mouse 680nm as second antibody. Then, the signals were quantified using β-actine.

Phospho AKT = test: Western blot, PI3K/AKT/mTOR pathway inhibition: phospho AKT; type: cell-based; conditions: 1 hour treatment; signals quantified using β-actine
Excerpt: as §1

AKT = test: Western blot, PI3K/AKT/mTOR pathway inhibition: total AKT; type: cell-based; conditions: 60 min treatment; signals quantified using β-actine
Excerpt: as §1

MCF-7 cell line = test: Cell cycle analysis by flow cytometry (propidium iodide DNA staining); type: cell-based; conditions: for percentage of cells in each cell cycle phase: G0/G1 / percentage of cells in each cell cycle phase: G2/M / percentage of cells in each cell cycle phase: S: 72 hours of incubation
Method: For the evaluation of the MDN-0088 activity, the MCF-7 cell line was used. The method used was flow cytometry to determine the effect of MDN-0088 on cell cycle. This method of DNA staining utilizes ethanol to fix the cells and permeabilize the membrane, which allows the dye (Propidium Iodide) to enter the cells.
For this purpose, cells were seeded in 6-well plates at 200,000 cells/well. After 24 hours, cells were serum-deprived for 72 hours. Medium was removed and compounds/standards were added in fresh medium at a different concentration (4µL of compound/2mL fresh medium). DMSO concentration was 0.2% in all wells. After 72 hours of incubation (37 °C, 5% CO2), cells were scrapped and centrifuged (1200rpm for 5 min) and washed twice with PBS. 330 µL of cell suspension was placed in a Facs tube and 660 µL ice cold 100% ethanol was added drop-wise to the tube walls. Tubes were mixed by vortexing slowly during addition of ethanol. They were left at […] overnight.
Tubes were centrifuged (1200 rpm for 5 min) to remove ethanol, 4 mL PBS was added and they were washed at 1200 rpm for 5 min. The supernatant was removed and cells were resuspended in DNA staining solution (500 µL PBS/IP 20µg/mL/Rnase 0.2 mg/ml). Data was acquired on a flow cytometer (Accury, BD).
As shown in Table 3 and Figure 1, an increase in G0/G1 and a decrease both in S and G2/M phase were observed. […]

mice = conditions: mouse, ip, 50 mg/kg
Method: In order to evaluate the in vivo toxicity, mice were intraperitoneal injected with MDN-0088 at 50 mg/kg.

Compound | phospho-GSK3 β (Phospho GSK3β) | pAKT (Phospho AKT) | AKT total (AKT) | percentage of cells in each cell cycle phase: G0/G1 (MCF-7 cell line; MCF-7, 6.25 µM) | percentage of cells in each cell cycle phase: G2/M (MCF-7 cell line; MCF-7, 6.25 µM) | percentage of cells in each cell cycle phase: S (MCF-7 cell line; MCF-7, 6.25 µM) | percentage of cells in each cell cycle phase: G0/G1 (MCF-7 cell line; MCF-7, 12.5 µM) | percentage of cells in each cell cycle phase: G2/M (MCF-7 cell line; MCF-7, 12.5 µM) | percentage of cells in each cell cycle phase: S (MCF-7 cell line; MCF-7, 12.5 µM) | percentage of cells in each cell cycle phase: G0/G1 (MCF-7 cell line; MCF-7, 25 µM) | percentage of cells in each cell cycle phase: G2/M (MCF-7 cell line; MCF-7, 25 µM) | percentage of cells in each cell cycle phase: S (MCF-7 cell line; MCF-7, 25 µM) | percentage of cells in each cell cycle phase: G0/G1 (MCF-7 cell line; MCF-7, 50 µM) | percentage of cells in each cell cycle phase: G2/M (MCF-7 cell line; MCF-7, 50 µM) | percentage of cells in each cell cycle phase: S (MCF-7 cell line; MCF-7, 50 µM) | effect on cell cycle (MCF-7 cell line; MCF-7, result in words) | weight loss or changes in behavior (mice; in vivo) | in vivo toxicity (mice)
O=c1cc(N2CCOCC2)oc2c(-c3ccccc3)cccc12 [LY294002, reference compound] | 0.042 | 0.055 | 0.61 | – | – | – | – | – | – | – | – | – | – | – | – | – | – | –
CCCCCCCC(=O)CCCc1oc(=O)ccc1O[C@@H]1O[C@H](CO)[C@@H](O)[C@H](O)[C@H]1O [MDN-0088] | 0.037 | 0.027 | 0.58 | 48.17% | 17.71% | 6.09% | 53.49% | 15.76% | 5.64% | 56.9% | 14.38% | 3.49% | 62.79% | 10.99% | 2.37% | blocks the cell cycle in G0/G1 phase | no weight loss or changes in their behavior | absence of toxicity
